Data on 23 molecules can be found in ChEMBL document CHEMBL4831537, “Biotransformation of Betulonic Acid by the Fungus Rhizopus arrhizus CGMCC 3.868 and Antineuroinflammatory Activity of the Biotransformation Products” (J Nat Prod, 2021).

The structures appear in SMILES notation. Where only a bound is given, the exact number is not on record here.

As a reminder, the IC50 is the midpoint of a concentration-inhibition curve.

The subject of one data set is BV-2. The data set is described as follows: Anti-neuroinflammatory activity in mouse BV-2 cells assessed as inhibition of LPS-induced NO production incubated for 48 hrs by Griess reagent based assay. The class given is functional, cell-based. Conditions: BV-2, 48 h.
Data set [1] in a line: Cytotoxicity against mouse BV-2 cells assessed as cell viability by MTT assay. In kind it is cell-based. Also on record: concentration or dose not given beside the values. Conditions: read-out: Activity. (In general: Tetrazolium assays rely on reduction of a dye to a coloured formazan, in cell work by metabolically active cells.)

Regarding `C=C(C)[C@@H]1CC[C@]2(C(=O)O)CC[C@]3(C)[C@H](CC[C@@H]4[C@@]5(C)CCC(=O)C(C)(C)[C@@H]5C[C@H](OC(C)=O)[C@]43C)[C@@H]12`, the IC50 in the data set on BV-2 came out at 10.3 µM. In data set [1], the viability amounted to 102%.
As for `C=C(C)[C@@H]1CC[C@]2(C(=O)O)CC[C@]3(C)[C@H](CC[C@@H]4[C@@]5(C)CCC(=O)C(C)(C)[C@@H]5C[C@H](O)[C@]43C)[C@@H]12`, the IC50 in the data set on BV-2 was found to be 34.6 µM. In addition, the viability in data set [1] was 99.2%.
In the same order, the values of `C=C(C)[C@@H]1CC[C@]2(C(=O)O[C@@H]3O[C@H](CO)[C@@H](O)[C@H](O)[C@H]3O)CC[C@]3(C)[C@H](CC[C@@H]4[C@@]5(C)CCC(=O)C(C)(C)[C@@H]5C[C@H](O)[C@]43C)[C@@H]12` are 4.69 µM and 101%.
Consider `C=C(COO)[C@@H]1CC[C@]2(C(=O)O)CC[C@]3(C)[C@H](CC[C@@H]4[C@@]5(C)CCC(=O)C(C)(C)[C@@H]5CC[C@]43C)[C@@H]12`, for which the IC50 in the data set with BV-2 was 24.8 µM. Besides, the viability in data set [1] came out at 101%.
For `C=C(CO)[C@@H]1CC[C@]2(C(=O)O)CC[C@]3(C)[C@H](CC[C@@H]4[C@@]5(C)CCC(=O)C(C)(C)[C@@H]5CC[C@]43C)[C@@H]12`, the IC50 in the data set with BV-2 came out at 35.1 µM. In addition, in data set [1], the viability amounted to 104%.
For `C=C(CO)[C@@H]1CC[C@]2(C(=O)O)CC[C@]3(C)[C@H](CC[C@@H]4[C@@]5(C)CCC(=O)C(C)(C)[C@@H]5C[C@H](O)[C@]43C)[C@@H]12`, in the data set with BV-2, the IC50 is 11.1 µM. In addition, the viability in data set [1] amounted to 103%.
Consider `CC(=O)OC[C@H](C)[C@@H]1CC[C@]2(C(=O)O)CC[C@]3(C)[C@H](CC[C@@H]4[C@@]5(C)CCC(=O)C(C)(C)[C@@H]5C[C@H](O)[C@]43C)[C@@H]12`, for which, in the data set with BV-2, the IC50 amounted to 61.2 µM. In addition, the viability in data set [1] was 99.5%.
In the same order, the values of `CC(=O)OC[C@@H](C)[C@@H]1CC[C@]2(C(=O)O)CC[C@]3(C)[C@H](CC[C@@H]4[C@@]5(C)CCC(=O)C(C)(C)[C@@H]5C[C@H](O)[C@]43C)[C@@H]12` are 66.3 µM and 98.8%.
Turning to `C=C(C)[C@@H]1CC[C@]2(C(=O)O)C[C@H](O)[C@]3(C)[C@H](CC[C@@H]4[C@@]5(C)CCC(=O)[C@@](C)(COC(C)=O)[C@@H]5CC[C@]43C)[C@@H]12`, the IC50 in the data set with BV-2 came to 42.4 µM. In data set [1], the viability amounted to 102%.
In the same order, the values of `C=C(C)[C@@H]1CC[C@]2(C(=O)O)CC[C@]3(C)[C@H](CC[C@@H]4[C@@]5(C)CCC(=O)[C@@](C)(CO)[C@@H]5C[C@H](O)[C@]43C)[C@@H]12` are 15.6 µM and 110%.
With `C=C(C)[C@@H]1CC[C@]2(C(=O)O)CC[C@]3(C)[C@H](CC[C@@H]4[C@@]5(C)CC(=O)[C@H](O)C(C)(C)[C@@H]5C[C@H](O)[C@]43C)[C@@H]12`, the IC50 with BV-2 was greater than 100 µM. Besides, the viability in data set [1] turned out to be 97.3%.
Consider `C=C(C)[C@@H]1CC[C@]2(C(=O)O)C[C@H](O)[C@]3(C)[C@H](C[C@@H](O)[C@@H]4[C@@]5(C)CCC(=O)C(C)(C)[C@@H]5CC[C@]43C)[C@@H]12`, for which the IC50 with BV-2 was greater than 100 µM. In addition, in data set [1], the viability was found to be 103%.
As to `C=C(C)[C@@H]1CC[C@]2(C(=O)O)C[C@H](O)[C@]3(C)[C@H](CC[C@@H]4[C@@]5(C)CCC(=O)[C@@](C)(CO)[C@@H]5C[C@H](O)[C@]43C)[C@@H]12`, in the data set with BV-2, the IC50 is 58.3 µM. For the same molecule, in data set [1], the viability came to 105%.
For the molecule `C=C(COC(C)=O)[C@@H]1CC[C@]2(C(=O)O)C[C@H](O)[C@]3(C)[C@H](CC[C@@H]4[C@@]5(C)CCC(=O)C(C)(C)[C@@H]5CC[C@]43C)[C@@H]12`, in the data set with BV-2, the IC50 is 76.6 µM. Moreover, the viability in data set [1] was found to be 101%.
Turning to `CNC(=N)NCCC[C@H](N)C(=O)O` [TILARGININE], the IC50 in the data set with BV-2 is 21.4 µM. In addition, in data set [1], the viability came out at 110%.
Take `CC(=O)[C@@H]1CC[C@]2(C(=O)O)CC[C@]3(C)[C@H](CC[C@@H]4[C@@]5(C)CCC(=O)C(C)(C)[C@@H]5C[C@H](O)[C@]43C)[C@@H]12`: in the data set on BV-2, the IC50 turned out to be 53.9 µM. The viability in data set [1] was found to be 106%.
Consider `C=C(C)[C@@H]1CC[C@]2(C(=O)O)CC[C@]3(C)[C@H](CC[C@@H]4[C@@]5(C)CCC(=O)[C@@](C)(COC(C)=O)[C@@H]5C[C@H](O)[C@]43C)[C@@H]12`, for which, in the data set with BV-2, the IC50 is 1.55 µM. For the same molecule, the viability in data set [1] is 103%.
Take `C=C(C)[C@@H]1CC[C@]2(C(=O)O)CC[C@]3(C)[C@H](CC[C@@H]4[C@@]5(C)C[C@@H](O)C(=O)C(C)(C)[C@@H]5C[C@H](O)[C@]43C)[C@@H]12`: the IC50 with BV-2 was determined as 64.8 µM. Besides, the viability in data set [1] was found to be 106%.
Take `C=C(COC(C)=O)[C@@H]1CC[C@]2(C(=O)O)CC[C@]3(C)[C@H](CC[C@@H]4[C@@]5(C)CCC(=O)C(C)(C)[C@@H]5C[C@H](O)[C@]43C)[C@@H]12`: the IC50 in the data set with BV-2 is 5.38 µM. Also, the viability in data set [1] was 109%.
As for `C=C(C)[C@@H]1C[C@@H](O)[C@]2(C(=O)O)CC[C@]3(C)[C@H](CC[C@@H]4[C@@]5(C)CCC(=O)C(C)(C)[C@@H]5C[C@H](O)[C@]43C)[C@@H]12`, the IC50 in the data set with BV-2 was found to be 37.2 µM. For the same molecule, the viability in data set [1] is 101%.
As for `C=C(C)[C@@H]1CC[C@]2(C(=O)O)CC[C@]3(C)[C@H](C[C@H](O)[C@@H]4[C@@]5(C)CCC(=O)C(C)(C)[C@@H]5C[C@H](O)[C@]43C)[C@@H]12`, the concentration for half-maximal inhibition (IC50) with BV-2 is greater than 100 µM. In data set [1], the viability stood at 88.4%.
In the same order, the values of `C=C(C)[C@@H]1CC[C@]2(C(=O)O)CC[C@]3(C)[C@H](CC[C@@H]4[C@@]5(C)CCC(=O)C(C)(C)[C@@H]5CC[C@]43C)[C@@H]12` [BETUNOLIC ACID] are 60.7 µM and 102%.
Turning to `C=C(C)[C@@H]1CC[C@]2(C(=O)O)C[C@H](O)[C@]3(C)[C@H](CC[C@@H]4[C@@]5(C)CCC(=O)C(C)(C)[C@@H]5C[C@H](O)[C@]43C)[C@@H]12`, the IC50 with BV-2 was found to be 93.7 µM. Also, the viability in data set [1] was 101%.
